Biological target: NS3 (Hepatitis C virus, UniProt A3EZJ3)
Test: Inhibitory activity against HCV NS3 protease
Parameters: species or system Hepacivirus hominis
Details: read-out: Ki

NS3, sequence (A3EZJ3 whole entry): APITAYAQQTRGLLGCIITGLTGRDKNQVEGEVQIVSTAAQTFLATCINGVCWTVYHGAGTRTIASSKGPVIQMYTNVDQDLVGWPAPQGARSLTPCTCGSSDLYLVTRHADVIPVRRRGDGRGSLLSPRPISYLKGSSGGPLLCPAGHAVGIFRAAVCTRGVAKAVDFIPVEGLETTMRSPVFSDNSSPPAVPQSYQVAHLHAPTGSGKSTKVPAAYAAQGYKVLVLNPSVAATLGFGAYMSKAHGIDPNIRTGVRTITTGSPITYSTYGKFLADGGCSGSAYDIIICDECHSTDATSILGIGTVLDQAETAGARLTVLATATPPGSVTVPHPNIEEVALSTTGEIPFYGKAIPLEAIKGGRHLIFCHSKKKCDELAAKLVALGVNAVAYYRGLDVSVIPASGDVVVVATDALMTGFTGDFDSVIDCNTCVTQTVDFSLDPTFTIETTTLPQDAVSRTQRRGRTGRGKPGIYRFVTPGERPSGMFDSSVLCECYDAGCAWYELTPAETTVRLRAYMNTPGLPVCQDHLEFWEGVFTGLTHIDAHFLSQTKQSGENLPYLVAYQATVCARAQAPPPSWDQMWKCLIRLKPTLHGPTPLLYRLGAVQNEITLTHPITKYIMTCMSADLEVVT

Row | Ki [µM] | Compound
1 | 0.019 | CN(C)C(=O)[C@@H](NC(=O)CNC(=O)C(=O)C(CC1CC1)NC(=O)[C@@H]1C2CCC(C2)N1C(=O)[C@@H](NC(=O)NC(C)(C)C)C1CCCCC1)c1ccccc1 (some centres undefined)
2 | 0.053 | CC(C)CC(NC(=O)[C@@H]1C2CCC(C2)N1C(=O)[C@@H](NC(=O)OC(C)(C)C)C1CCCCC1)C(=O)C(=O)NCC(=O)N[C@H](C(=O)N(C)C)c1ccccc1 (some centres undefined)

Same assay, conditions: read-out: Ki app

Row | Ki [µM] | Compound
3 | 0.051 | CN(C)C(=O)[C@@H](NC(=O)CNC(=O)C(=O)C(CC1CCC1)NC(=O)[C@@H]1C2CCC(C2)N1C(=O)[C@@H](NC(=O)OC(C)(C)C)C1CCCCC1)c1ccccc1 (some centres undefined)
4 | 0.021 | CN(C)C(=O)[C@@H](NC(=O)CNC(=O)C(=O)C(CC1CCC1)NC(=O)[C@@H]1C2CCC(C2)N1C(=O)[C@@H](NC(=O)NC(C)(C)C)C1CCCCC1)c1ccccc1 (some centres undefined)
5 | 0.01 | CN(C)C(=O)[C@@H](NC(=O)CNC(=O)C(=O)C(CC1CC1)NC(=O)[C@@H]1C2CCC(C2)N1C(=O)[C@@H](NC(=O)NC(C)(C)C)C(C)(C)C)c1ccccc1 (some centres undefined)
6 | 0.02 | CN(C)C(=O)[C@@H](NC(=O)CNC(=O)C(=O)C(CC1CC1)NC(=O)[C@@H]1C2CCC(C2)N1C(=O)[C@@H](NC(=O)OC(C)(C)C)C1CCCCC1)c1ccccc1 (some centres undefined)
7 | 0.013 | CN(C)C(=O)[C@@H](NC(=O)CNC(=O)C(=O)C(CC1CCC1)NC(=O)[C@@H]1C2CCC(C2)N1C(=O)[C@@H](NC(=O)NC(C)(C)C)C(C)(C)C)c1ccccc1 (some centres undefined)
8 | 0.09 | CCCC(NC(=O)[C@@H]1C2CCC(C2)N1C(=O)[C@@H](NC(=O)OC(C)(C)C)C1CCCCC1)C(=O)C(=O)NCC(=O)N[C@H](C(=O)N(C)C)c1ccccc1 (some centres undefined)
9 | 0.027 | CN(C)C(=O)[C@@H](NC(=O)CNC(=O)C(=O)C(CC1CCC1)NC(=O)[C@@H]1C2CCC(C2)N1C(=O)[C@@H](NC(=O)OC(C)(C)C)C(C)(C)C)c1ccccc1 (some centres undefined)

The next lines start with the molecule.

Row | Compound | Ki [µM]
10 | CCCC(NC(=O)[C@@H]1C2CCC(C2)N1C(=O)[C@@H](NC(=O)OC(C)(C)C)C(C)(C)C)C(=O)C(=O)NCC(=O)N[C@H](C(=O)N(C)C)c1ccccc1 (some centres undefined) | 0.11
11 | CN(C)C(=O)[C@@H](NC(=O)CNC(=O)C(=O)C(CC1CC1)NC(=O)[C@@H]1C2CCC(C2)N1C(=O)[C@@H](NC(=O)OC(C)(C)C)C(C)(C)C)c1ccccc1 (some centres undefined) | 0.019
12 | CCCC(NC(=O)[C@@H]1C2CC([C@H]3C[C@@H]23)N1C(=O)[C@@H](NC(=O)C(C)(C)C)C1CCCCC1)C(=O)C(=O)NCC(=O)N[C@H](C(=O)N(C)C)c1ccccc1 (some centres undefined) | 0.09
13 | CCCC(NC(=O)[C@@H]1C2CCC(C2)N1C(=O)[C@@H](NC(=O)OC(C)(C)C)C(C)(C)C)C(=O)C(=O)NCC(=O)OCc1ccccc1 (some centres undefined) | 1.5
14 | CCCCC(NC(=O)[C@@H]1C2CC([C@H]3C[C@@H]23)N1C(=O)[C@@H](NC(=O)C(C)(C)C)C1CCCCC1)C(=O)C(=O)NCC(=O)N[C@H](C(=O)N(C)C)c1ccccc1 (some centres undefined) | 0.027
15 | CC(C)CC(NC(=O)[C@@H]1C2CCC(C2)N1C(=O)[C@@H](NC(=O)OC(C)(C)C)C(C)(C)C)C(=O)C(=O)NCC(=O)N[C@H](C(=O)N(C)C)c1ccccc1 (some centres undefined) | 0.04
16 | CCCCC(NC(=O)[C@@H]1C2CCC(C2)N1C(=O)[C@@H](NC(=O)OC(C)(C)C)C(C)(C)C)C(=O)C(=O)NCC(=O)N[C@H](C(=O)N(C)C)c1ccccc1 (some centres undefined) | 0.081
17 | C=CCNC(=O)C(=O)C(CCC)NC(=O)[C@@H]1C2CCC(C2)N1C(=O)[C@@H](NC(=O)OC(C)(C)C)C(C)(C)C (some centres undefined) | 5.5
18 | CCCC(NC(=O)[C@@H]1C2CCC(C2)N1C(=O)[C@@H](NC(=O)OC(C)(C)C)C(C)(C)C)C(=O)C(=O)NCC(=O)O (some centres undefined) | 3.8
19 | CCCC(NC(=O)[C@@H]1C2CCC(C2)N1C(=O)[C@@H](NC(=O)OC(C)(C)C)C(C)(C)C)C(=O)C(N)=O (some centres undefined) | 6.9

Biological target: T1, Neutrophil elastase (Homo sapiens, UniProt P08246)
T1 sequence (P08246 whole entry): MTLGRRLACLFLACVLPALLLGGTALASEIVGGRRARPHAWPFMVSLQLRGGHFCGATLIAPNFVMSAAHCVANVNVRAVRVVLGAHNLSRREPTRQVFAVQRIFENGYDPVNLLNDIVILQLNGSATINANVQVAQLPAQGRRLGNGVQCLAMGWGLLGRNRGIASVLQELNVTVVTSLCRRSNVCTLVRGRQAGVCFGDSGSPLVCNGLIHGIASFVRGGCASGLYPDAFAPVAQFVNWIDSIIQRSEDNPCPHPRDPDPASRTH
Test: Inhibitory activity against HNE
Details: read-out: Ki app

Row | Ki [µM] | Compound
20 | 0.34 | CN(C)C(=O)[C@@H](NC(=O)CNC(=O)C(=O)C(CC1CC1)NC(=O)[C@@H]1C2CCC(C2)N1C(=O)[C@@H](NC(=O)NC(C)(C)C)C(C)(C)C)c1ccccc1 (some centres undefined)
21 | 5.3 | CN(C)C(=O)[C@@H](NC(=O)CNC(=O)C(=O)C(CC1CCC1)NC(=O)[C@@H]1C2CCC(C2)N1C(=O)[C@@H](NC(=O)NC(C)(C)C)C(C)(C)C)c1ccccc1 (some centres undefined)

Tested on: not listed separately
Test: Selectivity for HNE over HCV NS3 protease
Details: not given

Row | Ratio Ki(app) | Compound
22 | 35 | CN(C)C(=O)[C@@H](NC(=O)CNC(=O)C(=O)C(CC1CC1)NC(=O)[C@@H]1C2CCC(C2)N1C(=O)[C@@H](NC(=O)NC(C)(C)C)C(C)(C)C)c1ccccc1 (some centres undefined)

Tested on: Hepatitis C virus
Test: Inhibition of HCV replication in a cellular replicon assay
Type: functional, organism-based, Hepacivirus hominis
Details: not given

Row | EC50 [µM] | Compound
23 | 0.6 | CCCCC(NC(=O)[C@@H]1C2CCC(C2)N1C(=O)[C@@H](NC(=O)OC(C)(C)C)C1CCCCC1)C(=O)C(=O)NCC(=O)N[C@H](C(=O)N(C)C)c1ccccc1 (some centres undefined)
24 | 2 | CN(C)C(=O)[C@@H](NC(=O)CNC(=O)C(=O)C(CC1CCC1)NC(=O)[C@@H]1C2CCC(C2)N1C(=O)[C@@H](NC(=O)NC(C)(C)C)C(C)(C)C)c1ccccc1 (some centres undefined)
